How the values were obtained:
[1] = test system: Aedes Aegypti female mosquitoes; experiment: Knockdown efficacy against mosquitoes in glass chamber; format: in vivo; conditions: for pest or weed control at 5 mg/strip: Aedes aegypti, 24 h, read-out: Dead (%); for KD50 / KD80 / Dead (%): Barex strips coated with 5 mg of each active; for KD50 / KD80: 20 min test period; for knockdown / biological activity in glass chamber (in words): fresh samples, 5 mg, 20 minute test period; for Dead (%): 24 hours post treatment
Method: Markings were made to identify the side to be treated with the active. Markings were also made to leave one inch spacing on either ends 12 and 14 of the strip 10 to enable handling. Intermediate solutions of the active in organic solvents were prepared. A micropipettor, calibrated to transfer a known amount of intermediate solution on to the strip, was used to dose the strip with the active. The solution, after transferring onto the strip 10, was made to wet a 2 inch by 8 inch area 16 between ends 12 and 14, and allowed to sit on the bench top until most of the solvent evaporated and the strips appeared dry (which took 15 minutes to 30 minutes). Strips 10 were then either folded twice and held together with a metal clip and kept in a glass jar or were wrapped in aluminum foil and kept in a sealed plastic bag. These were then stored in the refrigerator at −10° C. until further use.
A Glass chamber (0.75 m×0.75 m×0.75 m) was used for the test and was maintained at 80° F. and 50% relative humidity. Three treated strips were placed on a card board tray covered with an aluminum foil and then transferred to the glass chamber. The strips were exposed in the chamber for three minutes to allow insecticide vapors build-up in the enclosed air. Strips were then quickly removed, folded and stored in the refrigerator. Ten laboratory-cultured adult Aedes Aegypti female mosquitoes were released into the chamber. […] After 20 minutes of exposure, all mosquitoes were collected and placed in a container with sucrose pad. […] KD50, KD80, and % Dead values of the tests were obtained for analysis. KD50 and KD80 are defined as the time taken for 50% and 80% of the mosquitoes to get knocked down and % Dead is simply the percentage of mosquitoes that are dead after 24 hour period. The glass chamber was then dismantled and thoroughly wiped with soap solution to remove contamination of the active. The walls were then wiped with a paper towel and allowed to dry before assembling again for the next run.

[2] = Release of active in wind tunnel (residual analysis); format: physicochemical; conditions: for % Evap Barex: 5 mg transfluthrin coated on Barex (103 sq. cm.) from the named solvent; for % Evap Filter Paper: 5 mg transfluthrin coated on filter paper (103 sq. cm.) from the named solvent
Source text: A computer controlled wind tunnel was custom designed using a fan 18 for drawing fresh air designated by arrows 20 past baffles 22 into a chamber 28 containing multiple strips 10 to determine the release of actives from these strips under controlled environmental conditions (see FIG. 2).
Preset wind velocities can be entered into the computer and maintained without operator's involvement during the testing period. Honey comb flow straighteners 24 and 26 were placed on either ends of the wind tunnel to obtain uniform velocity profiles. Strips 10 were placed on the floor of a 12 inch by 12 inch cross sectioned body in triplicates in a staggered fashion so as to equalize any possible errors that arise from spatial dependency of air velocity. All studies were carried out at a constant air flow rate of 2 meters per second as determined by a velocity probe 30 in chamber 28 and at an ambient temperature of 70° F. for 72 hours. The exhaust designated by arrows 32 of the wind tunnel was directly connected to the building ventilation duct to prevent Transfluthrin contamination of the lab. Strips 10 were removed at predetermined intervals and stored in the refrigerator for subsequent analytical or biological testing.
(§1) A validated analytical method was used to determine the residual level of active on the strips using gas chromatography. All samples were analyzed using this method to determine evaporation losses and release rates in the wind tunnel.

[3] = Residual analysis and release rate of large chamber samples; format: physicochemical
Method: as §1
The 8 hour aged strips were also sent to analytical for residual analysis. Results, as summarized in Table 18, indicate that the average release of transfluthrin during the 8 hour period is ˜0.2 mg/hr.
Lab studies were also conducted on a portable electric device where a corrugated disc was impregnated with 280 mg of transfluthrin. The disc was placed in a device which has a fan that runs on a battery. Air flows through the holes of the disc releasing the transfluthrin into the environment. Lab studies were conducted on this unit to determine its efficacy. […] Weight loss experiments were also conducted to determine the release rates from this unit.

[4] = test system: Culex quinquefasciatus; experiment: Field trials in living rooms, human bare-leg catch; format: in vivo; conditions: Malaysia field study
Method: Field trials against Culex quinquefasciatus were conducted in living rooms of residential houses in a squatter area at Ujung Batu, Butterworth on the Northwest peninsula of Malaysia on plastic strips coated with transfluthrin. […] A total of four configurations were tested.
Config. A 2 sheets hung together on each of four walls
Config. B 1 sheet hung on each four walls
Config. C 1 sheet hung on each two opposite walls
Config. D 1 sheet hung on a wall
The average volume of the rooms where the test is conducted is 75.5 cubic meters […]. The human baits were seated 1-2 meters away from all the treated sheets and the efficacy was evaluated using the human bare-leg catch technique during the first 0-2 hours, 24 hours, 96 hours, and 168 hours the placing of the test sheets in the rooms.
These tests were conducted under a rigorous test environment. The predominant species collected during the trials was Culex quinquefasciatus which are most tolerant to pyrethroid based household insecticide products among the common mosquitoes found in the living premises in tropical and subtropical regions globally. Due to the local weather changes, the squatter area chosen for the trials indicated lower indoor mosquito density during the pretreatment and treatment trials.

Row | % Evap Barex [2] | % Evap Filter Paper [2] | Compound | pest or weed control at 5 mg/strip [1] | KD50 [1] | KD80 [1] | knockdown / biological activity in glass chamber (in words) [1] | also measured
1 |  |  | Cc1c(F)c(F)c(COC(=O)[C@@H]2[C@H](/C=C(\Cl)C(F)(F)F)C2(C)C)c(F)c1F (racemic) [Tefluthrin] | 100% | 13.00 min | 16.67 min | relatively lower activity | KD50 ([1]; listed as tefluthrin): 13 min
2 |  |  | C=CCC1=C(C)C(OC(=O)[C@@H]2[C@@H](C=C(C)C)C2(C)C)CC1=O (some centres unmarked) [Bioallethrin] |  | >20 min | >20 min | either minimal activity or no activity at all | Dead (%) [1]: 0%
3 |  |  | CC1(C)C(C=C(Cl)Cl)C1C(=O)OC(C#N)c1cccc(Oc2ccccc2)c1 (centres unmarked) [Cypermethrin] | 0% | >20 min | >20 min | either minimal activity or no activity at all | 
4 |  |  | CCN(CC)C(=O)c1cccc(C)c1 [DEET] |  | >20 min | >20 min | either minimal activity or no activity at all | Dead (%) [1]: 0%
5 |  |  | CC1(C)[C@H](C(=O)O[C@H](C#N)c2cccc(Oc3ccccc3)c2)[C@@H]1C=C(Br)Br [Deltamethrin] | 20% | >20 min | >20 min | either minimal activity or no activity at all | 
6 |  |  | CCOP(=S)(OCC)Oc1nc(Cl)c(Cl)cc1Cl [Dursban] | 0% | >20 min | >20 min | either minimal activity or no activity at all | 
7 |  |  | C#CCC1=C(C)C(OC(=O)C2C(C=C(C)C)C2(C)C)CC1=O (centres unmarked) [ETOC] |  | >20 min | >20 min | either minimal activity or no activity at all | Dead (%) [1]: 0%
8 | 70.3% | 45.0% | CCO [Ethanol] |  |  |  |  | 
9 | 57.6% | 61.1% | CCOC(C)=O [Ethyl Acetate] |  |  |  |  | 
10 |  |  | CC(C)C(C(=O)OC(C#N)c1cccc(Oc2ccccc2)c1)c1ccc(Cl)cc1 (centres unmarked) [Fenvalerate] | 0% | >20 min | >20 min | either minimal activity or no activity at all | 
11 | 86.8% | 78.5% | CCCCCCC [Heptane] |  |  |  |  | 
12 | 50.3% | 49.0% | CC(C)O [IPA, isopropyl alcohol] |  |  |  |  | 
13 | 70.9% | 63.8% | CC(=O)OCC(C)C [Isobutyl Acetate] |  |  |  |  | 
14 | 57.6% | 55.7% | COC(C)=O [Methyl Acetate] |  |  |  |  | 
15 |  |  | CC1(C)C(C=C(Cl)Cl)C1C(=O)OCc1cccc(Oc2ccccc2)c1 (centres unmarked) [Permanone] |  | >20 min | >20 min | either minimal activity or no activity at all | Dead (%) [1]: 0%
16 |  |  | CNC(=O)Oc1ccccc1OC(C)C [Propoxur] |  |  |  | either minimal activity or no activity at all | 
17 |  |  | CC(C)=CC1C(C(=O)OCc2coc(Cc3ccccc3)c2)C1(C)C (centres unmarked) [Resmethrin] | 10% | >20 min | >20 min | either minimal activity or no activity at all | 
18 |  |  | CC(C)=CC1C(C(=O)OCc2cccc(Oc3ccccc3)c2)C1(C)C (centres unmarked) [Sumithrin] | 0% | >20 min | >20 min | either minimal activity or no activity at all | 
19 | 59.6% | 56.4% | C1CCOC1 [THF] |  |  |  |  | 
20 |  |  | CC1(C)[C@H](C=C(Cl)Cl)[C@H]1C(=O)OCc1c(F)c(F)cc(F)c1F [Transfluthrin, (IR-trans)-(2,3,5,6-tetrafluorophenyl)methyl 3-(2,2-dichoroethenyl)-2,2-dimethyl cyclopropane carboxylate] | 100% |  | 6.83 min | highest activity | Transfluthrin loss in 8 hr ([3]; Barex strip on fan at 3.5 m/s): 1.5 mg; Release rate of Transfluthrin ([3]; average during the 8 hour period, Barex strip on fan, listed as transfluthrin): ~0.2 mg/h; transfluthrin release rate sufficient to achieve practical control [4]: 0.18 mg/h
21 |  |  | C#CC(OC(=O)C1C(C=C(C)C)C1(C)C)/C(C)=C/CC (centres unmarked) [Vapothrin] |  | >20 min | >20 min | either minimal activity or no activity at all | Dead (%) [1]: 0%

Row | Compound | % Evap Barex [2] | % Evap Filter Paper [2] | pest or weed control at 5 mg/strip [1] | KD50 [1] | KD80 [1] | knockdown / biological activity in glass chamber (in words) [1] | also measured
22 | CCC(C)O (centres unmarked) [2-Butanol] | 60.3% | 67.1% |  |  |  |  | 
23 | CC(C)=O [Acetone] | 58.3% | 57.7% |  |  |  |  | 
24 | CCC(C)=O [MEK] | 67.5% | 62.4% |  |  |  |  | 
25 | CO [Methanol] | 58.3% | 47.0% |  |  |  |  | 
26 | Cc1ccccc1 [Toluene] | 60.9% | 58.4% |  |  |  |  | 

— patent publication US6534079B1, “Passive space insect repellant strip” (priority 1999, dated 2003)
